Measured values reported in patent US10292972B1, “Pharmaceutical composition for treating cancer and a method thereof” (King Abdulaziz University, priority 2017, dated 2019).

System: MCF7 breast cancer cells
Experiment: RNA-Seq gene expression profiling of isopicrinine-treated MCF7 cells
Assay type: cell-based, human
Details: for number of upregulated genes / number of downregulated genes: vs DMSO-treated control, P value <0.05; for number of downregulated genes: fold change <−1
Protocol: MCF7 cells (1.6×10^5 cells) were treated with varying doses (sub-lethal) of purified isopicrinine i.e., 30 μM and 150 μM, in triplicates, for 18 hrs at 37° C. Total RNA was extracted using TRIzol reagent. Gene expression analyses of drug-treated MCF7 cells in the presence of sub-lethal concentrations of isopicrinine were performed using Illumina HiSeq. Each RNA was ribo-depleted (Ribo-Zero, Epicentre) prior to cDNA libarary preparation (ScriptSeq epicenter). Each cDNA was separately barcode tagged during library preparation, and sequenced in multiplex generating approximately >40 million 100 bp reads per sample for the mammalian cell line. The Illumina reads were mapped to their respective assembled reference transcriptome sequence using the mapping software TopHat and Cufflinks (Trapnell, C., Pachter, L., Salzberg, S. L. 2009. TopHat: discovering splice junctions with RNA-Seq. Bioinformatics, May 1; 25(9):1105-11. doi: 10.1093/bioinformatics/btp120, incorporated herein by reference in its entirety). Illumina read abundances mapping to each reference contig was normalized using the RPKM (reads per Kb per million reads) calculation. Differentially expressed transcripts were identified and functionally annotated using a variety of statistical analyses available via bioconductor in R language (Durinck, S., Moreau, Y., Kasprzyk, A., Davis, S., De Moor, B., Brazma, A., Huber, W. 2005. BioMart and Bioconductor: a powerful link between biological databases and microarray data analysis. Bioinformatics, 21(16), 3439-3440. doi: 10.1093/bioinformatics/bti525, incorporated herein by reference in its entirety). Clusters of differentially expressed and cycling transcripts were annotated to identify over-represented GO/KEGG pathways (Kanehisa, M., Goto, S., Sato, Y., Furumichi, M., Tanabe, M., 2012. KEGG for integration and interpretation of large-scale molecular data sets. Nucleic Acids Res., 40 (Database issue), D109-14. doi: 10.1093/nar/gkr988, incorporated herein by reference in its entirety).
MCF7 cell line was treated with sub-lethal doses of 30 μM and 150 μM of isopicrinine. […] RNA-Seq transcription profiling was performed for analyzing the transcriptome profile in alkaloid treated MCF7 cells in order to evaluate the pharmacological effects of the new alkaloid isolated from Rhazya stricta. To identify the differentially regulated/expressed genes after treatment with isopicrinine, RNA was extracted from alkaloid treated MCF7 cells (30 μM and 150 μM doses) and DMSO-treated control cells and RNA-Seq experiment was carried out. The sequencing data were compared and analyzed to identify the differentially expressed genes in mammalian cells after treatment with isopicrinine.

[1] = MCF7, vs DMSO control, Cell divsion, dose not given
[2] = MCF7, vs DMSO control, Chromosone Organization, dose not given
[3] = MCF7, vs DMSO control, Cytoskeleton, dose not given
[4] = MCF7, vs DMSO control, DNA repair, dose not given
[5] = MCF7, vs DMSO control, DNA replication, dose not given
[6] = MCF7, vs DMSO control, Induction of apoptosis, dose not given
[7] = MCF7, vs DMSO control, Regulation of cell growth, dose not given
[8] = MCF7, vs DMSO control, Regulation of transcription, dose not given
[9] = MCF7, vs DMSO control, Response to DNA damage stimulus, dose not given

C/C=C1\CN2[C@H]3C[C@@H]1[C@@H](C(=O)OC)[C@]14C[C@H]2O[C@]31Nc1ccccc14 [isopicrinine]
expression of Mxi1 gene (MCF7): significantly upregulated | expression of cell cycle and cell proliferation genes (CDC6, CDK1, CDCA5, DLGAP5, NUSAP1, KIF23, PRC1, BIRC5, AURKB, NDC80, CDC45) (MCF7, 30 μM): not affected | cytotoxicity at sub-lethal doses (MCF7, 30 μM and 150 μM, 18 hrs): No cytotoxicity was detected | number of upregulated genes (MCF7, 30 μM): 148 genes | number of downregulated genes (MCF7, 30 μM): 64 genes | expression of cell cycle and cell proliferation genes (CDC6, CDK1, CDCA5, DLGAP5, NUSAP1, KIF23, PRC1, BIRC5, AURKB, NDC80, CDC45) (MCF7, 150 μM): significantly downregulated | number of downregulated genes (MCF7, 150 μM): 59 genes | number of upregulated genes (MCF7, 150 μM, fold change >1): 36 genes | expression of cell division and mitosis genes (PTTG1, DLGAP5, Cdc6, NDC80, KIF15, KIF23, PRC1, NUSAP1, Aurora B kinase, CDCA5, ATAD2) (MCF7, high dose): downregulated | expression of pro-apoptotic gene PUMA (BBC3) (MCF7, sub-lethal dose, FIG. 5): upregulated | expression of survivin (BIRC5) (MCF7, sub-lethal doses): Downregulation | log2 (fold change) ASPM [1]: −1.3045 | log2 (fold change) AURKB [1]: −1.646 | log2 (fold change) BIRC5 [1]: −0.9572 | log2 (fold change) CDC6 [1]: −2.322 | log2 (fold change) CDCA5 [1]: −1.551 | log2 (fold change) CDK1 [1]: −1.149 | log2 (fold change) FBXO5 [1]: −1.067 | log2 (fold change) KIF23 [1]: −0.905 | log2 (fold change) NCAPG [1]: −1.314 | log2 (fold change) NCAPH [1]: −1.018 | log2 (fold change) NDC80 [1]: −1.343 | log2 (fold change) NUSAP1 [1]: −1.539 | log2 (fold change) PRC1 [1]: −1.527 | log2 (fold change) PTTG1 [1]: −1.05 | log2 (fold change) SGOL1 [1]: −1.044 | log2 (fold change) DLGAP5 [2]: −1.263 | log2 (fold change) ESPL1 [2]: −1.9647 | log2 (fold change) H2AFZ [2]: −0.952 | log2 (fold change) HIST1H1B [2]: −2.278 | log2 (fold change) HIST1H2AJ, HIST1H2AK [2]: −2.034 | log2 (fold change) HIST1H2AM, HIST1H3J [2]: −2.034 | log2 (fold change) HIST1H2BL [2]: −2.032 | log2 (fold change) HIST2H2AA4, HIST2H2AC [2]: −1.505 | log2 (fold change) HIST2H2AB [2]: −2.144 | log2 (fold change) HIST2H2BF [2]: −1.757 | log2 (fold change) HIST2H3C [2]: −2.716 | log2 (fold change) HIST2H3PS2 [2]: −1.3321 | log2 (fold change) HIST2H4A [2]: −2.138 | log2 (fold change) AGBL2 [3]: 2.627 | log2 (fold change) DLG2 [3]: 2.268 | log2 (fold change) DRP2 [3]: 2.047 | log2 (fold change) KRT81 [3]: 1.797 | log2 (fold change) PTP4A1 [3]: 1.331 | log2 (fold change) BRCA1 [4]: −1.076 | log2 (fold change) EXO1 [4]: −1.784 | log2 (fold change) RAD51AP1 [4]: −1.652 | log2 (fold change) UHRF1 [4]: −1.1337 | log2 (fold change) CDC45 [5]: −1.801 | log2 (fold change) MCM3 [5]: −1.644 | log2 (fold change) MCM4 [5]: −1.522 | log2 (fold change) MCM5 [5]: −1.878 | log2 (fold change) MCM6 [5]: −1.423 | log2 (fold change) MCM7 [5]: −1.716 | log2 (fold change) MCM8 [5]: −1.013 | log2 (fold change) MCM10 [5]: −1.321 | log2 (fold change) RFC3 [5]: −1.142 | log2 (fold change) RRM2 [5]: −1.2797 | log2 (fold change) TOP2A [5]: −1.662 | log2 (fold change) BBC3 [6]: 1.481 | log2 (fold change) CDKN1A [6]: 1.119 | log2 (fold change) INHBA [6]: 1.026 | log2 (fold change) MAGED1 [6]: 0.8954 | log2 (fold change) LTBP4 [7]: 1.504 | log2 (fold change) SPP1 [7]: 1.075 | log2 (fold change) VGF [7]: 0.9472 | log2 (fold change) ATAD2 [8]: −1.388 | log2 (fold change) ATAD5 [8]: −1.628 | log2 (fold change) ATF3 [8]: 1.3961 | log2 (fold change) BRIP1 [8]: −1.416 | log2 (fold change) EGR1 [8]: 1.39 | log2 (fold change) FHL2 [8]: 1.024 | log2 (fold change) MDM2 [8]: 1.725 | log2 (fold change) MXI1 [8]: 1.118 | log2 (fold change) MYBL2 [8]: −1.231 | log2 (fold change) NRG1 [8]: 0.8825 | log2 (fold change) BTG2 [9]: 1.485 | log2 (fold change) CCND1 [9]: 1.49 | log2 (fold change) DDB2 [9]: 1.191 | log2 (fold change) GADD45A [9]: 1.333
